Results on one compound are retold here after US20060141013A1, “Lysine mixture and apparatus and method for administering lysine” (priority 2002, published 2006).

Each structure is given as a SMILES string.

Data set [1] in a line: maximum amount of L-lysine capable of being dissolved in water. Particulars: water @ 20 °C. Format: physicochemical. The method, then:
Various different concentrations of L-lysine may be used in the mixture. In one embodiment, L-lysine is initially dissolved in water at a concentration of 500 mg/ml. The L-lysine/water solution is then mixed with the palatable base substance at a 1:1 ratio (i.e., 50% solution and 50% palatable base), resulting in an L-lysine concentration of 250 mg/ml. Given that the current recommended dosage of L-lysine is 250 to 1000 mg daily, two 2 ml doses may be administered daily. Alternatively, a single 4 ml dose may be administered (if the cat is willing to consume the 4 ml dose). It should be noted, however, that the underlying principles of the invention are not confined to any particular concentration of L-lysine or any particular dosage. For example, any concentration up to the maximum amount capable of being dissolved in water may be used (e.g., 64.2 gm/100 ml water @ 20 °C, or approximately 650 mg/ml). Moreover, the L-lysine solution may then be added to the palatable base at various different ratios, based on the desired L-lysine concentration and/or the desired consistency of the final mixture (e.g., 2:1, 3:1, 1:2, . . . etc).

For data set [2] the following is noted: water @ 20 °C; cited from earlier work.
The subject of data set [3] is Feline herpesvirus type I (FHV-1). Particulars: cats maintained on oral L-lysine; cited from earlier work.

On to `NCCCC[C@H](N)C(=O)O` [L-lysine], for which the “maximum amount capable of being dissolved in water (approximate concentration)” value in data set [1] is reported as “approximately 650 mg/ml”. Also, the “maximum amount capable of being dissolved in water” value in data set [2] is 64.2 gm/100 ml. In data set [3], the “severity and duration of infection if signs of the virus reoccur” value was “milder and of a shorter duration”; the “time between ocular viral flare-ups” value was “longer period of time between ocular viral flare-ups”.
